Data from PMC9115767 (European journal of medicinal chemistry, 2021).
Like-named read-outs stand apart in the source and are kept apart here.

Experiments:
[1] = in vitro; settings: human, microsomes
[2] = test system: HIV-2 ROD; test: microbe, parasite or virus in culture; format: cell-based
[3] = test system: MT-4 cells
[4] = test system: HIV-1 IIIB; format: cell-based
[5] = selectivity index, ratio CC50/EC50, HIV-2 ROD
[6] = selectivity index, ratio CC50/EC50, HIV-1 IIIB

COc1ccc(N(C)C(=O)[C@H](Cc2ccccc2)NC(=O)CN2CCN(S(=O)(=O)c3ccc(N)cc3)CC2=O)cc1 [Compound 11l, reference compound]
CLint scaled at 3 h, 100 µM [1]: 356 mL/min/kg

COc1ccc(N(C)C(=O)[C@H](Cc2ccccc2)NC(=O)CN2CC(=O)N(CC(=O)N[C@@H](Cc3ccccc3)C(=O)N(C)c3ccc(OC)cc3)CC2=O)cc1 [Q-a1, (2S,2′S)-2,2'-((2,2'-(2,5-dioxopiperazine-1,4-diyl)bis(acetyl))bis(azanediyl)) bis(N-(4-methoxyphenyl)-N-methyl-3-phenylpropanamide)]
SI HIV ROD [2]: <1.00

COc1ccc(N(C)C(=O)[C@H](Cc2cc(F)cc(F)c2)NC(=O)CN2CC(=O)N(CC(=O)N[C@@H](Cc3cc(F)cc(F)c3)C(=O)N(C)c3ccc(OC)cc3)CC2=O)cc1 [Q-a2, (2S,2S)-22′-((2,2'-(2,5'-dioxopiperazine-1,4-diyl)bis(acetyl))bis(azanediyl)) bis(3-(3,5-di-N-difluorophenyl)-N-(4-methoxyphenyl)-N-methylpropanamide)]
CLint scaled at 3 h, 100 µM [1]: 760 mL/min/kg

CN(C(=O)[C@H](Cc1ccccc1)NC(=O)CN1CCNCC1=O)c1ccccc1 [Q-b1, (S)–N-methyl-2-(2-(2-oxopiperazin-1-yl)acetamido)-N,3-diphenyl propanamide]
CC50 [3]: > 317 µM | SI HIV ROD [2]: >1.19 | SI HIV IIIB [4]: >1.28

COc1ccc(N(C)C(=O)[C@H](Cc2ccccc2)NC(=O)CN2CCNCC2=O)cc1 [Q-b2, (S)–N-(4-methoxyphenyl)-N-methyl-2-(2-(2-oxopiperazin-1-yl)acetamido)-3-phenylpropanamide]
SI HIV ROD [2, 5]: >8.94 | SI HIV IIIB [4, 6]: >3.30

COc1ccc(N(C)C(=O)[C@H](Cc2ccccc2)NC(=O)CN2CCN(CC(=O)N[C@@H](Cc3ccccc3)C(=O)N(C)c3ccc(OC)cc3)C(=O)C2)cc1 [Q-c1, (2S,2′S)-2,2'-((2,2'-(2-oxopiperazine-1,4-diyl)bis(acetyl))bis(azanediyl)) bis(N-(4-methoxyphenyl)-N-methyl-3-phenylpropanamide)]
SI HIV ROD [2]: <1.00 | SI HIV IIIB [4]: ≤4.29

COc1ccc(N(C)C(=O)[C@H](Cc2cc(F)cc(F)c2)NC(=O)CN2CCN(CC(=O)N[C@@H](Cc3ccccc3)C(=O)N(C)c3ccc(OC)cc3)C(=O)C2)cc1 [Q-c2, (S)-3-(3,5-difluorophenyl)-N-(4-methoxyphenyl)-2-(2-(4-(2-(((S)-1-((4-methoxyphenyl)(methyl)amino)-1-oxo-3-phenylpropan-2-yl)amino)-2-oxoethyl)-3-oxopiperazin-1-yl)acetamido)-N-methylpropanamide]
SI HIV ROD [2, 5]: <1.00

COc1ccc(N(C)C(=O)[C@H](Cc2ccccc2)NC(=O)CN2CCN(CC(=O)N[C@@H](Cc3ccccc3)C(=O)N(C)c3ccccc3)CC2=O)cc1 [Q-c3, (S)–N-(4-methoxyphenyl)-N-methyl-2-(2-(4-(2-(((S)-1-(methyl(phenyl)amino)-1-oxo-3-phenylpropan-2-yl)amino)-2-oxoethyl)-2-oxopiperazin-1-yl)acetamido)-3-phenylpropanamid]
SI HIV ROD [2, 5]: <1.00 | SI HIV IIIB [4, 6]: <1.00

COc1ccc(N(C)C(=O)[C@H](Cc2ccccc2)NC(=O)CN2CCN(CC(=O)N[C@@H](Cc3cc(F)cc(F)c3)C(=O)N(C)c3ccc(OC)cc3)C(=O)C2)cc1 [Q-c5, (S)-3-(3,5-difluorophenyl)-N-(4-methoxyphenyl)-2-(2-(4-(2-(((S)-1-((4-methoxyphenyl)(methyl)amino)-1-oxo-3-phenylpropan-2-yl)amino)-2-oxoethyl)-2-oxopiperazin-1-yl)acetamido)-N-methyl-propanamide]
SI HIV ROD [2, 5]: <1.00

COc1ccc(N(C)C(=O)[C@H](Cc2cc(F)cc(F)c2)NC(=O)CN2CCN(CC(=O)N[C@@H](Cc3ccccc3)C(=O)N(C)c3ccccc3)CC2=O)cc1 [Q-c6, (S)-3-(3,5-difluorophenyl)-N-(4-methoxyphenyl)-N-methyl-2-(2-(4-(2-(((S)-1-(methyl(phenyl)amino)-1-oxo-3-phenylpropan-2-yl)amino)-2-oxoethyl)-2-oxopiperazin-1-yl)acetamido)propenamide]
SI HIV ROD [2]: <1.00

CN(C(=O)[C@H](Cc1ccccc1)NC(=O)CN1CCN(CC(=O)N[C@@H](Cc2ccccc2)C(=O)N(C)c2ccccc2)C(=O)C1)c1ccccc1 [Q-c7, (2S,2′S)-2,2'-((2,2'-(2-oxopiperazine-1,4-diyl)bis(acetyl))bis(azanediyl)) bis(N-methyl-N,3-diphenylpropanamide)]
SI HIV ROD [2]: <1.00 | EC50 ([2]; Human immunodeficiency virus 2, MT4, read-out: EC50 HIV ROD): > 32.6 µM | SI HIV IIIB [4]: <1.00

COc1ccc(N(C)C(=O)[C@H](Cc2cc(F)cc(F)c2)NC(=O)CN2CCN(CC(=O)N[C@@H](Cc3ccccc3)C(=O)N(C)c3ccccc3)C(=O)C2)cc1 [Q-c8, (S)-3-(3,5-difluorophenyl)-N-(4-methoxyphenyl)-N-methyl-2-(2-(4-(2-(((S)-1-(methyl(phenyl)amino)-1-oxo-3-phenylpropan-2-yl)amino)-2-oxoethyl)-3-oxopiperazin-1-yl)acetamido)propenamide]
SI HIV ROD [2]: <1.00

COc1ccc(N(C)C(=O)[C@H](Cc2ccccc2)NC(=O)CN2CCN(CC(=O)N[C@@H](Cc3ccccc3)C(=O)N(C)c3ccccc3)C(=O)C2)cc1 [Q-c9, (S)–N-(4-methoxyphenyl)-N-methyl-2-(2-(4-(2-(((S)-1-(methyl(phenyl)amino)-1-oxo-3-phenylpropan-2-yl)amino)-2-oxoethyl)-3-oxopiperazin-1-yl)acetamido)-3-phenylpropanamide]
SI HIV ROD [2, 5]: <1.00 | SI HIV IIIB [4, 6]: ≤6.45
